From publication PMC7558282, “The Anticancer Activity for the Bumetanide-Based Analogs via Targeting the Tumor-Associated Membrane-Bound Human Carbonic Anhydrase-IX Enzyme” (Pharmaceuticals, 2020)
Values joined by “and” are separate entries in the source; they are usually repeats but may differ in a detail not shown here. Equal entries are not always repeated.

Tests used:
[1] = target: tumor-associated hCA isoforms; parameters: method as in PMID 18600270, PMID 18374572; details: cited from earlier work
mitochondrial hCAs = target: mitochondrial hCAs; parameters: method as in PMID 18600270, PMID 18374572; details: read-out: inhibition for mitochondrial hCAs (moderate); cited from earlier work
cytosolic hCAs = target: cytosolic hCAs; parameters: method as in PMID 18600270, PMID 18374572; details: read-out: inhibition for cytosolic hCAs (weak); cited from earlier work
hCA-IX [2] = target: T1, hCA-IX (Homo sapiens, UniProt Q16790); parameters: purchased BPS Bioscience 71101; details: compared with compound 2; no reference given; cited from earlier work
hCA-II = hCA-II (Homo sapiens, UniProt P00918); assay: colorimetric CA-inhibition assay based on CA-esterase activity, hCA-II; details: hCA-II IC50, three replicate experiments; N/D = non-detected IC50 within the range of the tested concentrations
Procedure: (§2) Based on the kit manufacturer’s protocol, the candidate inhibitors were dissolved in DMSO at 10 × highest final test concentration and specific aliquots of such working dilutions were incubated with the target hCA isozyme for 10 min at room temperature prior to permit the formation of the enzyme-inhibitor complex. Triplicate experiments were performed for each candidate inhibitor concentration. Parallel wells of solvent and enzyme controls were prepared to test the solvent impact upon the activity of the target enzyme. […] Following incubation, the CA-substrate was added and changes in absorbance (at 405 nm) were monitored for 60 min at room temperature within the kinetic mode. The negative enzyme control wells (without added compounds) were arbitrarily set as 100% enzyme activity. […] Absorbance readings from background wells were subtracted from the compound assay wells in order to account for background hydrolysis activity caused by the buffer solution [44, 45].

hCA-IX [3] = target: T1, hCA-IX; assay: colorimetric CA-inhibition assay based on CA-esterase activity, hCA-IX; details: for IC50: hCA-IX IC50, three replicate experiments; for Selectivity Ratio II/IX: ratio of IC50 values for isozyme CA-II relative to CA-IX
Procedure: as §2

[4] = test system: SCaBER bladder squamous cell carcinoma cells; assay: MTT cell proliferation assay, SCaBER; assay type: cell-based; details: Homo sapiens, 48 h, ±SEM
Procedure: (§1) Cells were cultured in 96-well plate, at cell density of 1.2–1.8 × 10^4 cells/well, using Dulbecco’s Modified Eagle Medium (Invitrogen^TM, Carlsbad, CA, USA) supplemented with 10% (w/v) fetal bovine serum (Hyclone^TM, Marlborough, MA, USA), 10 ug/mL of insulin (Sigma-Aldrich^TM, St. Louis, MO, USA), and 1% (w/v) penicillin-streptomycin (Sigma-Aldrich^TM, St. Louis, MO, USA). Following 24h-incubation period under 5% CO2 at 37 °C, cells were treated with compounds’ serial concentrations (0.1 µM–100 µM) in DMSO, where the DMSO final concentration in the culture medium never exceeded 0.2% (v/v). Subsequently, the treated microplates were incubated for 48 h at 5% CO2/37 °C prior to examination under the inverted microscope and proceeding for the MTT assay. The culture medium was discarded and 100 µL of complete medium comprising 5 mg/mL MTT dye were dispensed within every well, then plates were reincubated for 2 h at 5% CO2/37 °C. […] Color intensity within each well was measured spectrophotometrically using the ROBONIK-P2000® ELISA microplate reader (Bio-Tek^TM, Winooski, VT, USA) at 450 nm while subtracting the background absorbance of multi well plates at 690 nm. The experiment was conducted in triplicates and IC50 values were estimated through linear regression between the logarithm-transformed compound concentrations and corresponding % cell viability = (mean absorbance in test wells/mean absorbance in control wells) ∗ 100, having the response variable slope (four parameters) for all samples.

[5] = test system: A-498 kidney carcinoma cells; assay: MTT cell proliferation assay, A-498; assay type: cell-based, human; details: ±SEM
Procedure: as §1

| IC50 (hCA-II) | IC50 (hCA-IX [3]) | Selectivity Ratio II/IX (hCA-IX [3]) | Structure (SMILES) | also measured |
| --- | --- | --- | --- | --- |
| – | – | – | CCCCNc1cc(C(=O)O)cc(S(N)(=O)=O)c1Oc1ccccc1 [Bumetanide, bumetanide] | Ki on the tumor-associated hCA isoforms [1]: 21.1 to 25.8 nM; Ki (mitochondrial hCAs): 250 to 700 nM; Ki (cytosolic hCAs): 2570 to 6980 nM; hCA-IX inhibition of bumetanide (hCA-IX [2]): ~ 23 nM |
| 668 nM | 23.7 nM | 28.1 | CCCCNc1cc(C(=O)OC)cc(S(N)(=O)=O)c1Oc1ccccc1 [Compound 2, bumetanide methyl ester] | – |
| 1610 nM | 7.87 nM | 205.1 | CCCCNc1cc(C(=O)NN)cc(S(N)(=O)=O)c1Oc1ccccc1 [Compound 3, bumetanide hydrazide] | – |
| 1050 nM | 16.4 nM | 63.9 | CCCCNc1cc(C(=O)N2N=CCC2=O)cc(S(N)(=O)=O)c1Oc1ccccc1 [Compound 4] | – |
| 486 nM | 12.4 nM | 39.0 | CCCCNc1cc(-c2n[nH]c(=S)o2)cc(S(N)(=O)=O)c1Oc1ccccc1 [Compound 5] | – |
| – | 16.6 nM | – | CCCCNc1cc(C(=O)n2nc(C)cc2C)cc(S(N)(=O)=O)c1Oc1ccccc1 [Compound 6a] | – |
| 858 nM | 5.43 nM | 158.9 | CCCCNc1cc(C(=O)n2nc(C)cc2-c2ccccc2)cc(S(N)(=O)=O)c1Oc1ccccc1 [Compound 6b] | – |
| 1570 nM | 17.7 nM | 88.6 | CCCCNc1cc(C(=O)NNC(=S)Nc2ccccc2)cc(S(N)(=O)=O)c1Oc1ccccc1 [Compound 7a] | – |
| 1340 nM | 14.4 nM | 93.4 | C=CCNC(=S)NNC(=O)c1cc(NCCCC)c(Oc2ccccc2)c(S(N)(=O)=O)c1 [Compound 7b] | – |
| 1540 nM | 12.9 nM | 118.9 | CCCCNc1cc(C(=O)NNC(=S)Nc2ccc(Br)cc2)cc(S(N)(=O)=O)c1Oc1ccccc1 [Compound 7c] | – |
| 251 nM | 6.53 nM | 38.6 | CCCCNc1cc(C(=O)N/N=c2\scc(-c3ccc(Cl)cc3)n2-c2ccccc2)cc(S(N)(=O)=O)c1Oc1ccccc1 [Compound 8a] | IC50 [4]: 28400 ± 1400 nM; IC50 ([5]; 48 h): 15700 ± 630 nM; IC50 ([5]; Homo sapiens, A498, 48 h): 15600 nM |
| 1320 nM | 13 nM | 101.6 | CCCCNc1cc(C(=O)N/N=c2\scc(-c3ccc(C)cc3)n2-c2ccccc2)cc(S(N)(=O)=O)c1Oc1ccccc1 [Compound 8b] | – |
| 474 nM | 12.6 nM | 37.5 | CCCCNc1cc(C(=O)N/N=c2\scc(-c3ccc(OC)cc3)n2-c2ccccc2)cc(S(N)(=O)=O)c1Oc1ccccc1 [Compound 8c] | – |
| 5120 nM | 6.36 nM | 804.6 | C=CCn1c(-c2ccc(Cl)cc2)cs/c1=N\NC(=O)c1cc(NCCCC)c(Oc2ccccc2)c(S(N)(=O)=O)c1 [Compound 8d] | – |
| 518 nM | 11.5 nM | 44.9 | C=CCn1c(-c2ccc(C)cc2)cs/c1=N\NC(=O)c1cc(NCCCC)c(Oc2ccccc2)c(S(N)(=O)=O)c1 [Compound 8e] | – |
| 999 nM | 13.4 nM | 74.5 | C=CCn1c(-c2ccc(OC)cc2)cs/c1=N\NC(=O)c1cc(NCCCC)c(Oc2ccccc2)c(S(N)(=O)=O)c1 [Compound 8f] | – |
| 784 nM | > 7 nM and 7.18 nM | 109.2 | CCCCNc1cc(C(=O)N/N=c2\scc(-c3ccc(Cl)cc3)n2-c2ccc(Br)cc2)cc(S(N)(=O)=O)c1Oc1ccccc1 [Compound 8g] | – |
| 205 nM and 209 nM | > 7 nM and 14.3 nM | 14.5 | CCCCNc1cc(C(=O)N/N=c2\scc(-c3ccc(C)cc3)n2-c2ccc(Br)cc2)cc(S(N)(=O)=O)c1Oc1ccccc1 [Compound 8h] | IC50 [4]: 78040 ± 290 nM; IC50 ([5]; Homo sapiens, A498, 48 h): 6550 ± 260 nM |
| 426 nM | > 7 nM and 10.6 nM | 40.3 | CCCCNc1cc(C(=O)N/N=c2\scc(-c3ccc(OC)cc3)n2-c2ccc(Br)cc2)cc(S(N)(=O)=O)c1Oc1ccccc1 [Compound 8i] | – |
| 4060 nM | 5.31 nM | 764.8 | CCCCNc1cc(-c2n[nH]c(=S)n2-c2ccccc2)cc(S(N)(=O)=O)c1Oc1ccccc1 [Compound 9a] | – |
| 205 nM | 7.25 nM | 28.3 | C=CCn1c(-c2cc(NCCCC)c(Oc3ccccc3)c(S(N)(=O)=O)c2)n[nH]c1=S [Compound 9b] | IC50 [4]: 78100 ± 1700 nM; IC50 ([5]; 48 h): 16100 ± 1400 nM; IC50 ([5]; Homo sapiens, A498, 48 h): 16000 nM |
